Here are results for 24 compounds from patent US20230031406A1, “COMPOUNDS AND COMPOSITIONS FOR TREATING CONDITIONS ASSOCIATED WITH NLRP ACTIVITY” (Novartis AG, priority 2018, published 2023).

Each structure is given as a SMILES string. Like-named read-outs stand apart in the source and are kept apart here.

The assay concerns PMA-differentiated THP-1 cells. As to the kind of experiment: IL-1β production in PMA-differentiated THP-1 cells stimulated with gramicidin (hTHP-1 assay containing 2% fetal bovine serum; Procedures 1 and 2). Type of assay: cell-based, human. To be noted: 2% fetal bovine serum. An outline of the steps: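 IL-1β release from PMA-differentiated THP-1 macrophage-like cells was triggered by 5 μM gramicidin for 2 h after 1 h compound exposure, then measured by HTRF.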

[1] abbreviates: Homo sapiens, THP-1, Table B2, class symbols, read-out: hTHP-1 IC50.
[2] abbreviates: Homo sapiens, THP-1, Table B2, numeric bounds, read-out: hTHP-1 IC50.
[3] abbreviates: Table B2, class symbols, read-out: hTHP-1 IC50.
The mark [4] stands for this setting: Homo sapiens, THP-1, Table B3, hTHP-1 assay, class symbols, read-out: IC50.
The mark [5] stands for this setting: Table B3, hTHP-1 assay, class symbols, read-out: IC50.
[6] abbreviates: Table B1, class symbols, read-out: Average IC50 of compounds in hTHP-1 assay: hTHP-1 IC50.
Where [7] appears, read: Homo sapiens, THP-1, Table B1, numeric bounds, read-out: Average IC50 of compounds in hTHP-1 assay: hTHP-1 IC50.
Where [8] appears, read: Homo sapiens, THP-1, Table B1, class symbols, read-out: Average IC50 of compounds in hTHP-1 assay: hTHP-1 IC50.

`Cc1cc(C(C)(C)O)sc1S(N)(=O)=NC(=O)Nc1c2c(nc3c1CCC3)CCC2` (single isomer, unassigned) [Compound 695b, (R) or (S)-N′-((1,2,3,5,6,7-hexahydrodicyclopenta [b,e]pyridin-8-yl)carbamoyl)-5-(2-hydroxypropan-2-yl)-3-methylthiophene-2-sulfonimidamide]: the IC50 (commonly the concentration at which inhibition is half-maximal) under setting [1] lay within 5 to 30 µM.

Turning to `Cc1c(C(F)(F)F)nc2c(c1NC(=O)N=S(N)(=O)c1nn(C(C)C)cc1F)CCC2` (single isomer, unassigned) [Example 789, (R) or (S)-4-fluoro-1-isopropyl-N′-((3-methyl-2-(trifluoromethyl)-6,7-dihydro-5H-cyclopenta[b]pyridin-4-yl)carbamoyl)-1H-pyrazole-3-sulfonimidamide], where the note is “Table B4, class symbols, read-out: hTHP-1 IC50”, the IC50 fell in the range of 0.04 to 0.2 µM.

As for `CNCc1nc(C(C)(C)O)sc1S(N)(=O)=NC(=O)Nc1c2c(nc3c1CCC3(C)C)CCC2` (stereo not shown) [Compound 665, N-((3,3-dimethyl-1,2,3,5,6,7-hexahydrodicyclopenta[b,e]pyridin-8-yl)carbamoyl)-2-(2-hydroxypropan-2-yl)-4-((methylamino)methyl)thiazole-5-sulfonimidamide], the IC50 under setting [2] was above 30 µM.

`CC1CCc2c1nc1c(c2NC(=O)N=S(N)(=O)c2cn(C(C)C)cn2)CCC1` (single isomer, unassigned) [Compound 660a, (R, S) or (S, S) or (S, R) or (R, R)-1-Isopropyl-N′-((3-metliyl-1,2,3,5,6,7-hexahydrodicyclopenta [b,e]pyridin-8-yl)carbamoyl)-1H-imidazole-4-sulfonimidamide]: the IC50 (Table B2, numeric bounds, read-out: hTHP-1 IC50) was above 30 µM.

Turning to `CC1(C)CCc2c1nc1c(c2NC(=O)N=S(N)(=O)c2cnc(C(C)(O)CO)s2)CCC1` (single isomer, unassigned) [Compound 201e, (R, R) and (S, R) or (R, S) and (S, S)-2-(1,2-Dihydroxypropan-2-yl)-N′-((3,3-dimethyl-1,2,3.5.6.7-hexahydrodicyclopenta [b,e]pyridin-8-yl)carbamoyl)thiazole-5-sulfonimidamide], the concentration for half-maximal inhibition (IC50) under setting [3] was 0.04 to 0.2 µM.

For `CC(C)(O)c1csc(S(N)(=O)=NC(=O)Nc2cc(C(F)(F)F)nc3c2CCC3)c1` (stereo not shown) [Example 567, 4-(2-Hydroxypropan-2-yl)-N′-((2-(trifluoromethyl)-6,7-dihydro-5H-cyclopenta[b]pyridin-4-yl)carbamoyl)thiophene-2-sulfonimidamide], the IC50 under setting [4] was 5 to 30 µM.

Consider `NS(=O)(=NC(=O)Nc1c2c(nc3c1CCC31CC1)CCC2)c1nn(C(F)F)cc1F` (single isomer, unassigned) [Example 681, (R) or (S)-1-(difluoromethyl)-4-fluoro-N′-((1′,5′,6′,7′-tetrahydro-2′H-spiro[cyclopropane-1,3′-dicyclopenta[b,e]pyridin]-8′-yl)carbamoyl)-1H-pyrazole-3-sulfonimidamide], for which the IC50 under setting [5] was 0.04 to 0.2 µM.

Take `NS(=O)(=NC(=O)Nc1c2c(nc(C(F)(F)F)c1C1CC1)CCC2)c1nn(C(F)F)cc1F` (stereo not shown) [Compound 984b]: the IC50 (Table B3, hTHP-1 assay, class symbols, listed as Compound 984b, read-out: IC50) fell in the range of 0.04 to 0.2 µM.

Turning to `Cc1nc2c(c(NC(=O)N=S(N)(=O)c3sc(C(O)(CO)CO)nc3CO)c1C(F)(F)F)CCC2` (stereo not shown) [Example 587, 4-(Hydroxymethyl)-N′-((2-methyl-3-(trifluoromethyl)-6,7-dihydro-5H-cyclopenta[b]pyridin-4-yl)calbamoyl)-2-(1,2,3-trihydroxypropan-2-yl)thiazole-5-sulfonimidamide], the 50% inhibitory concentration (IC50) under setting [4] was in the range of 5 to 30 µM.

As to `CCn1cc(F)c(S(N)(=O)=NC(=O)Nc2c(C)c(C(F)(F)F)nc3c2CCC3)n1` (single isomer, unassigned) [Example 650, (S) or (R)-1-ethyl-4-fluoro-N′-((3-methyl-2-(trifluoromethyl)-6,7-dihydro-5H-cyclopenta[b]pyridin-4-yl)carbamoyl)-1H-pyrazole-3-sulfonimidamide], the IC50 under setting [5] is 1 to 5 µM.

For `CC(C)n1ccc(S(N)(=O)=NC(=O)Nc2c3c(nc4c2CCC42CC2)CCC3)n1` (single isomer, unassigned) [Compound 172a, (S) or (R)-1-Isopropyl-N′-((1′,5′,6′,7′-tetrahydro-2′H-spiro[cyclopropane-1,3′-dicyclopenta[b,e]pyridin]-8′-yl)carbamoyl)-1H-pyrazole-3-sulfonimidamide], the IC50 under setting [6] fell in the range of 5 to 30 µM.

`C[C@@H]1CCc2c1nc1c(c2NC(=O)N=S(N)(=O)c2sc(CN(C)C)cc2F)CCC1` (stereo partly drawn) [Compound 636c, 5-((Dimethylamino)methyl)-3-fluoro-N′-(((R)-3-methyl-1,2,3,5,6,7-hexahydrodicyclopenta[b,e]pyridin-8-yl)carbamoyl)thiophene-2-sulfonimidamide]: the 50% inhibitory concentration (IC50) under setting [1] lay in the range of 0.2 to 1 µM.

`Cc1c(-c2ccccc2)nc2c(c1NC(=O)N=S(N)(=O)c1cnc(C(C)(C)O)s1)CCC2` (single isomer, unassigned) [Compound 143a, (S) or (R)-2-(2-hydroxy-propan-2-yl)-N′-((3-methyl-2-phenyl-6,7-dihydro-5H-cyclopenta[b]pyridin-4-yl)carbamoyl)thiazole-5-sulfonimidamide]: the IC50 under setting [7] is above 30 µM.

Regarding `CC(C)n1ccc(S(N)(=O)=NC(=O)Nc2c3c(nc4c2CCC4)CCC3)n1` (single isomer, unassigned) [Compound 119a, (R) or (S)-N′-((1,2,3,5,6,7-hexahydrodicyclo-penta[b,e]pyridin-8-yl)carbamoyl)-1-isopropyl-1H-pyrazole-3-sulfonimidamide], the IC50 under setting [8] is 1 to 5 µM.

For the compound `CC(C)(O)c1cc(F)c(S(N)(=O)=NC(=O)Nc2c3c(nc4c2CCC4(C)C)CCC3)s1` (stereo not shown) [Compound 102, N′-((3,3-dimethyl-1,2,3,5,6,7-hexahydrodicyclopenta[b,e]pyridin-8-yl)carbamoyl)-3-fluoro-5-(2-hydroxypropan-2-yl)thiophene-2-sulfonimidamide], under setting [8], the half-maximal inhibitory concentration (IC50) fell in the range of 0.04 to 0.2 µM.

As to `CC1CCc2c1nc1c(c2NC(=O)N=S(N)(=O)c2ccc(CN(C)C)cc2F)CCC1` (stereo not shown) [Compound 139, 4-((dimethylamino)methyl)-2-fluoro-N′-((3-methyl-1,2,3,5,6,7-hexahydrodicyclopenta[b,e]pyridin-8-yl)carbamoyl)benzenesulfon-imidamide], under setting [8], the IC50 was in the range of 0.2 to 1 µM.

Consider `CCc1nc2c(c(NC(=O)N=S(N)(=O)c3cc(C(C)(C)O)cs3)c1C1CC1)CCC2` (single isomer, unassigned) [Compound 654b], for which the IC50 under setting [3] was 0.2 to 1 µM.

In the case of `CC(C)(O)c1cnc(S(N)(=O)=NC(=O)Nc2c3c(nc4c2CCC4)CCC3)s1` (single isomer, unassigned) [Compound 167a, (S) or (R)-N′-((1,2,3,5,6,7-hexahydrodicyclo-penta[b,e]pyridin-8-yl)carbamoyl)-5-(2-hydroxypropan-2-yl)thiazole-2-sulfonimidamide], under setting [6], the IC50 lay within 5 to 30 µM.

Consider `CC1(C)CCc2nc3c(c(NC(=O)N=S(N)(=O)c4ccc([C@](C)(O)COCCOCc5ccccc5)s4)c21)CCC3` (stereo partly drawn) [Example 625, 5-((R)-1-(2-(benzyloxy)ethoxy)-2-hydroxypropan-2-yl)-N′-((1,1-dimethyl-1,2,3,5,6,7-hexahydrodicyclopenta[b,e]pyridin-8-yl)carbamoyl)thiophene-2-sulfonimidamide], for which the IC50 under setting [4] was in the range of 1 to 5 µM.

On to `CC(C)(O)c1nc(CO)c(S(N)(=O)=NC(=O)Nc2c3c(nc4c2CCC4)CCC3)s1` (single isomer, unassigned) [Compound 150a, (S) or (R)-N′-((1,2,3,5,6,7-hexahydrodicyclo-penta[b,e]pyridin-8-yl)carbamoyl)-4-(hydroxymethyl)-2-(2-hydroxypropan-2-yl)thiazole-5-sulfonimidamide], for which the IC50 under setting [6] is 5 to 30 µM.

As to `Cc1nc(C)c(C)c(NC(=O)N=S(N)(=O)c2cnc(C(C)(C)O)s2)c1C` (single isomer, unassigned) [Compound 133b, (S) or (R)-2-(2-hydroxypropan-2-yl)-N′-((2,3,5,6-tetramethylpyridin-4-yl)carbamoyl)thiazole-5-sulfonimidamide], where the note is “Table B1, numeric bounds, read-out: Average IC50 of compounds in hTHP-1 assay: hTHP-1 IC50”, the IC50 is above 30 µM.

In the case of `CC1CCc2c1nc1c(c2NC(=O)N=S(N)(=O)c2ccn(C(F)F)n2)CCC1` (single isomer, unassigned) [Compound 184d, (S,R) or (S,S)-1-(difluoro-methyl)-N′-((3-methyl-1,2,3,5,6,7-hexahydro-dicyclopenta[b,e]pyridin-8-yl)carbamoyl)-1H-pyrazole-3-sulfonimidamide], under setting [6], the IC50 lay in the range of 1 to 5 µM.

For `Cc1cc(C2CC2)nc(NC(=O)N=S(N)(=O)c2ncc(C(C)(C)O)s2)n1` (stereo not shown) [Compound 185, N′-((4-cyclopropyl-6-methylpyrimidin-2-yl)carbamoyl)-5-(2-hydroxypropan-2-yl)thiazole-2-sulfonimidamide], the IC50 under setting [7] was above 30 µM and the IC50 under setting [2] was above 30 µM.

For the compound `CC(C)c1ncc(F)c(C(C)C)c1NC(=O)N=S(N)(=O)c1ncc(C(C)(C)O)s1` (stereo not shown) [Compound 165, N′-((5-fluoro-2,4-diisopropylpyridin-3-yl)carbamoyl)-5-(2-hydroxypropan-2-yl)thiazole-2-sulfonimidamide], the IC50 under setting [6] was in the range of 1 to 5 µM.
